Measured values taken from publication PMC10999558, “Analyzing resistome in soil and Human gut: a study on the characterization and risk evaluation of antimicrobial peptide resistance” (Frontiers in Microbiology, 2024).

Key:
Type in all cases: cell-based, Escherichia coli
Conditions in all cases: MHB, 37°C, 24 h, triplicate
[1] = system: E. coli DH5α; experiment: MIC, broth microdilution, E. coli DH5α carrying pUC118 or resistance-conferring plasmids
Method: (§1) Escherichia coli DH5α, E. coli BL21(DE3), and E. coli JM109 were utilized in this study.
(§2) The MICs were determined using the broth microdilution method in 96-well microtiter plates ([Wiegand et al., 2008]). In brief, a 1:100 dilution of the mid-exponential phase bacterial culture (OD600 = 0.5), consisting of 5 μL (1 × 10^5 CFU/mL), was introduced into polypropylene 96-well plates. These plates contained a two-fold dilution series of AMP in a total volume of 100 μL MHB per well. The incubation of the plates occurred at 37°C in a humidity chamber. The MIC was identified as the lowest concentration that hindered visible bacterial growth after 24 h of incubation. Each experiment was conducted in triplicate.
(§3) Following validation, the colonies displaying resistance underwent additional testing via MIC assessments for the remaining four AMPs that were not employed during the selection process. This experimental procedure was carried out in triplicate.

[2] = system: E. coli JM109; experiment: MIC, broth microdilution, retransformed E. coli JM109
Method: as §1, §2
(§4) Before washing down the colonies, we randomly selected two clones from each plate containing distinct AMP. Colony PCRs were conducted using M13 primer pairs to validate the presence of inserts and determine their sizes. The selected colonies were then subjected to sequencing. The specific details are provided in Supplementary Table S2. Following that, plasmids were isolated using the Plasmid Midiprep Kit (Zomanbio, ZP103) following the manufacturer’s guidelines. After the plasmids were successfully reintroduced into E. coli JM109 and E. coli BL 21(DE3), the MICs of the transformed strains against the AMP used for selection were tested. This testing process was carried out in triplicate.
as §3

[3] = system: E. coli BL21(DE3); experiment: MIC, broth microdilution, retransformed E. coli BL21(DE3)
Method: as §1, §2, §4, §3

**Q.** Iseganan [IB367] was tested. Which MIC ([1]; E. coli DH5α containing pUC118 plasmids) did it give?
**A.** Its MIC is 16 µg/mL.

**Q.** What about the MIC ([1]; colony pUC118-DH5α (control, no insert)) of the same substance?
**A.** The MIC was 16 µg/mL.

**Q.** And the MIC ([1]; colony pUC118-FCST1-DH5α (feces insert 1 selected against colistin))?
**A.** The MIC was 16 µg/mL.

**Q.** What about the MIC ([1]; colony pUC118-FCST2-DH5α (feces insert 2 selected against colistin)) of the same substance?
**A.** The MIC was 16 µg/mL.

**Q.** And the MIC ([1]; colony pUC118-FGQ1-DH5α (feces insert 1 selected against melittin))?
**A.** Its MIC is 16 µg/mL.

**Q.** What about the MIC ([1]; colony pUC118-FGQ2-DH5α (feces insert 2 selected against melittin)) of the same substance?
**A.** The MIC was 32 µg/mL.

**Q.** What about the MIC ([1]; colony pUC118-FIB1-DH5α (feces insert 1 selected against iseganan)) of the same substance?
**A.** The MIC was 32 µg/mL.

**Q.** What about the MIC ([1]; colony pUC118-FIB2-DH5α (feces insert 2 selected against iseganan)) of the same substance?
**A.** The MIC was 32 µg/mL.

**Q.** And the MIC ([1]; colony pUC118-FPB1-DH5α (feces insert 1 selected against polymyxin B))?
**A.** The MIC was 32 µg/mL.

**Q.** And the MIC ([1]; colony pUC118-FPB2-DH5α (feces insert 2 selected against polymyxin B))?
**A.** Its MIC is 16 µg/mL.

**Q.** What about the MIC ([1]; colony pUC118-FSA1-DH5α (feces insert 1 selected against cathelicidin-DM)) of the same substance?
**A.** Its MIC is 16 µg/mL.

**Q.** And the MIC ([1]; colony pUC118-FSA2-DH5α (feces insert 2 selected against cathelicidin-DM))?
**A.** Its MIC is 16 µg/mL.

**Q.** And the MIC ([1]; colony pUC118-SCST1-DH5α (soil insert 1 selected against colistin))?
**A.** Its MIC is 16 µg/mL.

**Q.** And the MIC ([1]; colony pUC118-SCST2-DH5α (soil insert 2 selected against colistin))?
**A.** The MIC was 16 µg/mL.

**Q.** And the MIC ([1]; colony pUC118-SGQ1-DH5α (soil insert 1 selected against melittin))?
**A.** Its MIC is 16 µg/mL.

**Q.** What about the MIC ([1]; colony pUC118-SGQ2-DH5α (soil insert 2 selected against melittin)) of the same substance?
**A.** The MIC was 16 µg/mL.

**Q.** And the MIC ([1]; colony pUC118-SIB1-DH5α (soil insert 1 selected against iseganan))?
**A.** The MIC was 32 µg/mL.

**Q.** And the MIC ([1]; colony pUC118-SIB2-DH5α (soil insert 2 selected against iseganan))?
**A.** Its MIC is 32 µg/mL.

**Q.** What about the MIC ([1]; colony pUC118-SPB1-DH5α (soil insert 1 selected against polymyxin B)) of the same substance?
**A.** The MIC was 16 µg/mL.

**Q.** And the MIC ([1]; colony pUC118-SPB2-DH5α (soil insert 2 selected against polymyxin B))?
**A.** Its MIC is 16 µg/mL.

**Q.** What about the MIC ([1]; colony pUC118-SSA1-DH5α (soil insert 1 selected against cathelicidin-DM)) of the same substance?
**A.** Its MIC is 32 µg/mL.

**Q.** What about the MIC ([1]; colony pUC118-SSA2-DH5α (soil insert 2 selected against cathelicidin-DM)) of the same substance?
**A.** Its MIC is 32 µg/mL.

**Q.** What about the MIC ([2]; colony pUC118-FCST1-JM109 (feces insert 1 selected against colistin)) of the same substance?
**A.** The MIC was 8 µg/mL.

**Q.** What about the MIC ([2]; colony pUC118-FCST2-JM109 (feces insert 2 selected against colistin)) of the same substance?
**A.** The MIC was 8 µg/mL.

**Q.** And the MIC ([2]; colony pUC118-FGQ1-JM109 (feces insert 1 selected against melittin))?
**A.** The MIC was 8 µg/mL.

**Q.** And the MIC ([2]; colony pUC118-FGQ2-JM109 (feces insert 2 selected against melittin))?
**A.** The MIC was 16 µg/mL.

**Q.** And the MIC ([2]; colony pUC118-FIB1-JM109 (feces insert 1 selected against iseganan))?
**A.** The MIC was 16 µg/mL.

**Q.** What about the MIC ([2]; colony pUC118-FIB2-JM109 (feces insert 2 selected against iseganan)) of the same substance?
**A.** Its MIC is 32 µg/mL.

**Q.** And the MIC ([2]; colony pUC118-FPB1-JM109 (feces insert 1 selected against polymyxin B))?
**A.** Its MIC is 32 µg/mL.

**Q.** What about the MIC ([2]; colony pUC118-FPB2-JM109 (feces insert 2 selected against polymyxin B)) of the same substance?
**A.** The MIC was 8 µg/mL.

**Q.** And the MIC ([2]; colony pUC118-FSA1-JM109 (feces insert 1 selected against cathelicidin-DM))?
**A.** The MIC was 8 µg/mL.

**Q.** And the MIC ([2]; colony pUC118-FSA2-JM109 (feces insert 2 selected against cathelicidin-DM))?
**A.** The MIC was 8 µg/mL.

**Q.** And the MIC ([2]; colony pUC118-JM109 (control, no insert))?
**A.** The MIC was 8 µg/mL.

**Q.** And the MIC ([2]; colony pUC118-SCST1-JM109 (soil insert 1 selected against colistin))?
**A.** Its MIC is 8 µg/mL.

**Q.** What about the MIC ([2]; colony pUC118-SCST2-JM109 (soil insert 2 selected against colistin)) of the same substance?
**A.** The MIC was 8 µg/mL.

**Q.** What about the MIC ([2]; colony pUC118-SGQ1-JM109 (soil insert 1 selected against melittin)) of the same substance?
**A.** Its MIC is 8 µg/mL.

**Q.** And the MIC ([2]; colony pUC118-SGQ2-JM109 (soil insert 2 selected against melittin))?
**A.** Its MIC is 8 µg/mL.

**Q.** What about the MIC ([2]; colony pUC118-SIB1-JM109 (soil insert 1 selected against iseganan)) of the same substance?
**A.** The MIC was 32 µg/mL.

**Q.** What about the MIC ([2]; colony pUC118-SIB2-JM109 (soil insert 2 selected against iseganan)) of the same substance?
**A.** Its MIC is 16 µg/mL.

**Q.** And the MIC ([2]; colony pUC118-SPB1-JM109 (soil insert 1 selected against polymyxin B))?
**A.** The MIC was 8 µg/mL.

**Q.** And the MIC ([2]; colony pUC118-SPB2-JM109 (soil insert 2 selected against polymyxin B))?
**A.** The MIC was 8 µg/mL.

**Q.** And the MIC ([2]; colony pUC118-SSA1-JM109 (soil insert 1 selected against cathelicidin-DM))?
**A.** Its MIC is 16 µg/mL.

**Q.** And the MIC ([2]; colony pUC118-SSA2-JM109 (soil insert 2 selected against cathelicidin-DM))?
**A.** The MIC was 16 µg/mL.

**Q.** And the MIC ([3]; colony pUC118-BL21(DE3) (control, no insert))?
**A.** The MIC was 16 µg/mL.

**Q.** What about the MIC ([3]; colony pUC118-FCST1-BL21(DE3) (feces insert 1 selected against colistin)) of the same substance?
**A.** Its MIC is 16 µg/mL.

**Q.** What about the MIC ([3]; colony pUC118-FCST2-BL21(DE3) (feces insert 2 selected against colistin)) of the same substance?
**A.** The MIC was 16 µg/mL.

**Q.** What about the MIC ([3]; colony pUC118-FGQ1-BL21(DE3) (feces insert 1 selected against melittin)) of the same substance?
**A.** Its MIC is 16 µg/mL.

**Q.** What about the MIC ([3]; colony pUC118-FGQ2- BL21(DE3) (feces insert 2 selected against melittin)) of the same substance?
**A.** Its MIC is 32 µg/mL.

**Q.** What about the MIC ([3]; colony pUC118-FIB1-BL21(DE3) (feces insert 1 selected against iseganan)) of the same substance?
**A.** The MIC was 32 µg/mL.

**Q.** And the MIC ([3]; colony pUC118-FIB2-BL21(DE3) (feces insert 2 selected against iseganan))?
**A.** Its MIC is 32 µg/mL.

**Q.** What about the MIC ([3]; colony pUC118-FPB1-BL21(DE3) (feces insert 1 selected against polymyxin B)) of the same substance?
**A.** The MIC was 32 µg/mL.

**Q.** What about the MIC ([3]; colony pUC118-FPB2-BL21(DE3) (feces insert 2 selected against polymyxin B)) of the same substance?
**A.** The MIC was 16 µg/mL.

**Q.** What about the MIC ([3]; colony pUC118-FSA1-BL21(DE3) (feces insert 1 selected against cathelicidin-DM)) of the same substance?
**A.** The MIC was 16 µg/mL.

**Q.** What about the MIC ([3]; colony pUC118-FSA2-BL21(DE3) (feces insert 2 selected against cathelicidin-DM)) of the same substance?
**A.** Its MIC is 16 µg/mL.

**Q.** And the MIC ([3]; colony pUC118-SCST1-BL21(DE3) (soil insert 1 selected against colistin))?
**A.** Its MIC is 16 µg/mL.

**Q.** What about the MIC ([3]; colony pUC118-SCST2-BL21(DE3) (soil insert 2 selected against colistin)) of the same substance?
**A.** The MIC was 16 µg/mL.

**Q.** What about the MIC ([3]; colony pUC118-SGQ1-BL21(DE3) (soil insert 1 selected against melittin)) of the same substance?
**A.** The MIC was 16 µg/mL.

**Q.** And the MIC ([3]; colony pUC118-SGQ2-BL21(DE3) (soil insert 2 selected against melittin))?
**A.** The MIC was 16 µg/mL.

**Q.** And the MIC ([3]; colony pUC118-SIB1-BL21(DE3) (soil insert 1 selected against iseganan))?
**A.** Its MIC is 32 µg/mL.

**Q.** What about the MIC ([3]; colony pUC118-SIB2-BL21(DE3) (soil insert 2 selected against iseganan)) of the same substance?
**A.** Its MIC is 32 µg/mL.

**Q.** And the MIC ([3]; colony pUC118-SPB1-BL21(DE3) (soil insert 1 selected against polymyxin B))?
**A.** The MIC was 16 µg/mL.

**Q.** And the MIC ([3]; colony pUC118-SPB2-BL21(DE3) (soil insert 2 selected against polymyxin B))?
**A.** The MIC was 16 µg/mL.

**Q.** And the MIC ([3]; colony pUC118-SSA1-BL21(DE3) (soil insert 1 selected against cathelicidin-DM))?
**A.** The MIC was 32 µg/mL.

**Q.** And the MIC ([3]; colony pUC118-SSA2-BL21(DE3) (soil insert 2 selected against cathelicidin-DM))?
**A.** Its MIC is 16 µg/mL.
